In patent US6537972B1, “Compositions and methods for inhibiting human immunodeficiency virus infection by down-regulating human cellular genes” (Subsidiary No. 3., Inc., priority 1997, dated 2003):

What was measured:
OM10.1 cells = type: cell-based; details: human, 24 h, 100 nM
[1] = system: human peripheral blood leukocytes (CD3+ T cells); experiment: Uninfected human PBLs under mofarotene (control samples, CD3-gated flow cytometry); type: cell-based; details: for % CD4+ in T cell population / % p24+ in CD4+ T population: HIV −, human PBLs; for % CD4+ in T cell population: CD3+ gated
Method: (§1) Human peripheral blood leukocytes (PBLs) were isolated using Ficoll-Hypaque density gradient separation. Cells were washed twice and resuspended in RPMI+10% FBS+2% human AB serum+penicillin/streptomycin/glutamine+100 Units/ml of IL-2 at a concentration of 0.5×10^6 cells/ml. PBLs were then activated with phytohemagglutinin at 0.5 μg/ml and placed in a humidified incubator at 37° C./[…]. After two days of activation, 10^6 cells were infected with HIV-1SF33 at TCID50 of 1000, in the presence of various concentrations of mofarotene: 0 μM, 1 μM, 0.5 μM, 0.1 μM, and 0.05 μM. A separate set of uninfected samples under identical concentrations of mofarotene were also maintained as controls. The samples were analyzed by flow cytometry at day 4 and day 6 post infection. The cells were gated for CD3 expression (for T cells). Then the expression of CD4 and viral p24 and CD4 was examined by bivariate dot plot.

HIV-1SF33 = experiment: Infection of freshly isolated human PBLs with HIV-1SF33 in the presence of mofarotene (CD3-gated flow cytometry); type: cell-based; details: for % CD4+ in T cell population / % p24+ in CD4+ T population: HIV +, HIV-1SF33 TCID50 1000
Method: as §1

[2] = system: latent HIV provirus in OM10.1 cells; experiment: Inhibition of TNF-α induction of latent HIV provirus in OM10.1 cells (CD4 / p24 by flow cytometry); type: cell-based, HIV-1
Method: OM10.1 cells were cultured in RPMI 1640 glucose-free media prior to and during incubation with NADH dehydrogenase inhibitors and TNF-α induction. The inhibitors were added to the cells followed by TNF-α induction 1-2 hours later. The expression of CD4 by the cells was assessed by anti-CD4 antibody staining and flow cytometry after 24 hour incubation at 37° C.

[3] = mofarotene 0.05 μM, human PBLs, day 6
[4] = mofarotene 0.1 μM, human PBLs, day 6
[5] = mofarotene 0.5 μM, human PBLs, day 6
[6] = mofarotene 1.0 μM, human PBLs, day 6
[7] = mofarotene 1.0 μM, human PBLs, day 6, listed as mofarotene

C/C(=C\c1ccc(OCCN2CCOCC2)cc1)c1ccc2c(c1)C(C)(C)CCC2(C)C [Mofarotene]
cells that remained viable (OM10.1 cells): greater than 80% | % CD4+ in T cell population ([1]; mofarotene 0.05 μM, day 6): 33% | % p24+ in CD4+ T population ([1]; mofarotene 0.05 μM, day 6): 0% | % CD4+ in T cell population ([1]; mofarotene 0.1 μM, day 6): 34% | % p24+ in CD4+ T population ([1]; mofarotene 0.1 μM, day 6): 0% | % CD4+ in T cell population ([1]; mofarotene 0.5 μM, day 6): 34% | % p24+ in CD4+ T population ([1]; mofarotene 0.5 μM, day 6): 0% | % CD4+ in T cell population ([1]; mofarotene 1.0 μM, day 6): 36% | % p24+ in CD4+ T population ([1]; mofarotene 1.0 μM, day 6): 0% | percentage of CD4+ T cells, compound alone ([1]; day 4, uninfected samples): did not significantly alter | expression level of CD3 on the cell surface ([1]; day 6): did not alter | increase of the percentage of CD4+ T cells in uninfected samples, compound alone ([1]; day 6, effect called minimal): up to 4% | depletion of CD4+ T cells by HIV infection (HIV-1SF33; 1 μM, day 6, human PBLs): inhibited the depletion of CD4^+ T cells | % CD4+ in T cell population (HIV-1SF33; [3]): 18% | % p24+ in CD4+ T population (HIV-1SF33; [3]): 20.5% | % CD4+ in T cell population (HIV-1SF33; [4]): 28% | % p24+ in CD4+ T population (HIV-1SF33; [4]): 11.4% | % CD4+ in T cell population (HIV-1SF33; [5]): 24% | % p24+ in CD4+ T population (HIV-1SF33; [5]): 12.5% | % CD4+ in T cell population (HIV-1SF33; [6]): 25% | % p24+ in CD4+ T population (HIV-1SF33; [6]): 10% | % CD4+ in T cell population (HIV-1SF33; [7]): ~25% | % p24+ in CD4+ T population (HIV-1SF33; [7]): 10% | difference between HIV-infected PBLs with or without mofarotene (HIV-1SF33; day 4 post-infection): little detectable difference | cells that retained CD4 expression ([2]; 100 nM, TNF-α-induced OM10.1 cells): 80% | induction of latent HIV provirus in OM10.1 cells (retention of CD4 expression) ([2]; TNF-α-induced OM10.1 cells, 24 hour incubation, FIG. 25, 26): inhibited HIV-1 induction at even lower concentrations | intracellular p24 levels in treated cells ([2]; compared with untreated controls): suppressed intracellular p24 levels
